For orientation: IC50 means the concentration that inhibits the measured activity by half.

Each structure is given as a SMILES string. Where a name gives a salt, the structure may show the parent alone.

This test has as its target T1, TAK1-TAB1 fusion protein (Homo sapiens, UniProt O43318).
T1 construct: purchased Carna
T1 sequence (O43318 with tags, fused parts or gaps limits assumed): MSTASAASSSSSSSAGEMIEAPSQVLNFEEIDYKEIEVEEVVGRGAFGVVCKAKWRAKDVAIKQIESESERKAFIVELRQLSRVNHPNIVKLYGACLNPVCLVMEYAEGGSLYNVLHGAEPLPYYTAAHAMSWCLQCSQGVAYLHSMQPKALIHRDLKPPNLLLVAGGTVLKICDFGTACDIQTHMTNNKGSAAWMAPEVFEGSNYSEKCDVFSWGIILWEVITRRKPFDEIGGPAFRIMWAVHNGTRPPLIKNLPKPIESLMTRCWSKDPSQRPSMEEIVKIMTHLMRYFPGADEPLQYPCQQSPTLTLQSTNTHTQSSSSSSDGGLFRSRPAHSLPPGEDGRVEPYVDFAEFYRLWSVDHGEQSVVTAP
Briefly: TAK1 biochemical assay (AlphaScreen, GST-MAP2K7 substrate). The following applies: TAK1-TAB1 fusion protein, GST-MAP2K7 substrate; read-out: mean TAK1 IC50 (Col. A).
On to `CC(=O)N1CCC(n2cc(-c3cnc(N)c4oc(C5CCCCC5)cc34)cn2)CC1` [Example 152, 1-{4-[4-(7-amino-2-cyclohexylfuro[2,3-c]pyridin-4-yl)-1H-pyrazol-1-yl]piperidin-1-yl}ethanone], for which the IC50 is 100 to 1000 nM.
Consider `COc1cc2c(-c3cc4c(-c5cnn([C@H]6CC[C@H](O)CC6)c5)cnc(N)c4o3)csc2cn1` [Example 250, trans-4-{4-[7-amino-2-(5-methoxythieno[2,3-c]pyridin-3-yl)furo[2,3-c]pyridin-4-yl]-1H-pyrazol-1-yl}cyclohexanol bis(trifluoroacetate)], for which the IC50 fell in the range of 1000 to 10000 nM.
As for `CCC(C)Oc1cccc(-c2cc3c(-c4cnn(C5CCN(C(C)=O)CC5)c4)cnc(N)c3o2)c1` (centres unmarked) [Example 210], the IC50 was > 10000 nM.
For the molecule `Nc1ncc(-c2cnn([C@H]3CC[C@H](O)CC3)c2)c2cc(-c3c(F)ccc4ncsc34)oc12` [Example 359, trans-4-{4-[7-amino-2-(6-fluoro-1,3-benzothiazol-7-yl)furo[2,3-c]pyridin-4-yl]-1H-pyrazol-1-yl}cyclohexanol], the IC50 lay in the range of 1000 to 10000 nM.
With `Cn1cc(-c2cnc(N)c3oc(-c4csc5cnccc45)cc23)c(C#N)n1` [Example 345, 4-(7-amino-2-thieno[2,3-c]pyridin-3-yl-furo[2,3-c]pyridin-4-yl)-1-methyl-1H-pyrazole-3-carbonitrile], the IC50 is > 10000 nM.
Take `CC(=O)N1CCC(n2cc(-c3cnc(N)c4oc(-c5ccc(Oc6ccccc6)cc5)cc34)cn2)CC1` [Example 159, 1-(4-{4-[7-amino-2-(4-phenoxyphenyl)furo[2,3-c]pyridin-4-yl]-1H-pyrazol-1-yl}piperidin-1-yl)ethanone]: the IC50 was > 10000 nM.
In the case of `O[C@H]1CC[C@H](n2cc(-c3cncc4oc(-c5cccc6ncsc56)cc34)cn2)CC1`, the IC50 is 100 to 1000 nM.
Turning to `CC(=O)N1CCC(n2cc(-c3cnc(N)c4oc(-c5csc6cc(=O)n(C)cc56)cc34)cn2)CC1` [Example 258, 3-{4-[1-(1-acetylpiperidin-4-yl)-1H-pyrazol-4-yl]-7-aminofuro[2,3-c]pyridin-2-yl}-5-methylthieno[3,2-c]pyridin-6(5H)-one trifluoroacetic Acid Salt], the IC50 is 1000 to 10000 nM.
In the case of `CC(C)(C)OC(=O)N1CCC(n2cc(-c3cnc(N)c4oc(-c5cccc6ccsc56)cc34)cn2)CC1` [Example 17A] it was > 10000 nM.
As to `CC(=O)N1CCC(n2cc(-c3cnc(N)c4oc(-c5ccccc5CO)cc34)cn2)CC1` [Example 194, 1-[4-(4-{7-amino-2-[2-(hydroxymethyl)phenyl]furo[2,3-c]pyridin-4-yl}-1H-pyrazol-1-yl)piperidin-1-yl]ethanone], the IC50 fell in the range of 100 to 1000 nM.
In the case of `CC(=O)N1CCC(n2cc(-c3cnc(N)c4oc(-c5cccc(OCc6cccnc6)c5)cc34)cn2)CC1` [Example 202, 1-[4-(4-{7-amino-2-[3-(pyridin-3-ylmethoxy)phenyl]furo[2,3-c]pyridin-4-yl}-1H-pyrazol-1-yl)piperidin-1-yl]ethanone], the IC50 fell in the range of 1000 to 10000 nM.
`CC(=O)N1CCC(n2cc(-c3cnc(N)c4oc(-c5cccc(OC(C)C)c5)cc34)cn2)CC1` [Example 165, 1-[4-(4-{7-amino-2-[3-(propan-2-yloxy)phenyl]furo[2,3-c}pyridin-4-yl}-1H-pyrazol-1-yl)piperidin-1-yl}ethanone]: the IC50 is 1000 to 10000 nM.
`Nc1cc(-c2cc3c(-c4cnn(C5CCNCC5)c4)cnc(N)c3o2)cnc1Cl` [Example 43, 2-(5-amino-6-chloropyridin-3-yl)-4-[1-(piperidin-4-yl)-1H-pyrazol-4-yl]furo[2,3-c]pyridine-7-amine]: the IC50 lay within 100 to 1000 nM.
As to `COc1cc(-c2cc3c(-c4cnn(C5CCN(C(C)=O)CC5)c4)cnc(N)c3o2)ccc1N` [Example 150, 1-(4-{4-[7-amino-2-(4-amino-3-methoxyphenyl)furo[2,3-c]pyridin-4-yl]-1H-pyrazol-1-yl}piperidin-1-yl)ethanone], the IC50 was 1000 to 10000 nM.
For `Nc1ncc(-c2cnn(CC(=O)O)c2)c2cc(-c3csc4cnccc34)oc12` [Example 296, [4-(7-amino-2-thieno[2,3-c]pyridin-3-yl-furo[2,3-c]pyridin-4-yl)-pyrazol-1-yl]-acetic acid], the IC50 fell in the range of 100 to 1000 nM.
With `Nc1ncc(-c2cnn(C3CCNCC3)c2)c2cc(-c3ccc4[nH]cnc4c3)oc12` [Example 39, 2-(1H-benzimidazol-5-yl)-4-[1-(piperidin-4-yl)-1H-pyrazol-4-yl]furo[2,3-c]pyridine-7-amine], the IC50 lay within 100 to 1000 nM.
`Nc1ncc(-c2cnn(C3CCNCC3)c2)c2cc(-c3ccoc3)oc12` [Example 21, 2-(furan-3-yl)-4-[1-(piperidin-4-yl)-1H-pyrazol-4-yl]furo[2,3-c]pyridine-7-amine]: the IC50 was 1000 to 10000 nM.
As to `Nc1ncc(-c2cc(C(=O)O)cs2)c2cc(-c3csc4cnccc34)oc12` [Example 379, 5-(7-amino-2-thieno[2,3-c]pyridin-3-yl-furo[2,3-c]pyridin-4-yl)-thiophene-3-carboxylic acid], the IC50 is 1000 to 10000 nM.
The figure for `Nc1ncc(-c2cnn([C@H]3CC[C@H](O)CC3)c2)c2cc(-c3cccc4ncccc34)oc12` [Example 235, trans-4-{4-[7-amino-2-(quinolin-5-yl)furo[2,3-c]pyridin-4-yl]-1H-pyrazol-1-yl}cyclohexanol] is 1000 to 10000 nM; for `CC(=O)N1CCC(n2cc(-c3cnc(N)c4oc(-c5cnn(Cc6ccncc6)c5)cc34)cn2)CC1` [Example 151, 1-[4-(4-{7-amino-2-[1-(pyridin-4-ylmethyl)-1H-pyrazol-4-yl]furo[2,3-c]pyridin-4-yl}-1H-pyrazol-1-yl)piperidin-1-yl]ethanone] it is 1000 to 10000 nM.
In the case of `CC(=O)N1CCC(n2cc(-c3cnc(N)c4oc(-c5ccc6c(c5)CC(=O)N6)cc34)cn2)CC1` [Example 103, 5-{4-[1-(1-acetylpiperidin-4-yl)-1H-pyrazol-4-yl]-7-aminofuro[2,3-c]pyridin-2-yl}-1,3-dihydro-2H-indol-2-one], the IC50 lay within 1000 to 10000 nM.
Regarding `CC(=O)N1CCC(n2cc(-c3cnc(N)c4oc(-c5csc6c(=O)[nH]ccc56)cc34)cn2)CC1` [Example 257, 3-{4-[1-(1-acetylpiperidin-4-yl)-1H-pyrazol-4-yl]-7-aminofuro[2,3-c]pyridin-2-yl}thieno[2,3-c]pyridin-7(6H)-one trifluoroacetic Acid Salt], the IC50 fell in the range of 1000 to 10000 nM.
In the case of `CC(=O)N1CCC(n2cc(-c3cnc(N)c4oc(-c5cccc(OC(F)(F)F)c5)cc34)cn2)CC1` [Example 163, 1-[4-(4-{7-amino-2-[3-(trifluoromethoxy)phenyl]furo[2,3-c]pyridin-4-yl}-1H-pyrazol-1-yl)piperidin-1-yl]ethanone] it was 1000 to 10000 nM.
For the molecule `Nc1ncc(-c2cnn(C3CCN(C(=O)Nc4cccc(Cc5ccccc5)c4)CC3)c2)c2cc(-c3cccc4cnsc34)oc12` [Example 339, 4-[4-(7-amino-2-benzo[d]isothiazol-7-yl-furo[2,3-c]pyridin-4-yl)-pyrazol-1-yl]-piperidine-1-carboxylic acid (3-benzyl-phenyl)-amide], the IC50 lay in the range of 1000 to 10000 nM.
The figure for `CCOc1cccc(-c2cc3c(-c4cnn(C5CCN(C(C)=O)CC5)c4)cnc(N)c3o2)c1` [Example 162, 1-(4-{4-[7-amino-2-(3-ethoxyphenyl)furo[2,3-c]pyridin-4-yl]-1H-pyrazol-1-yl}piperidin-1-yl)ethanone] is 1000 to 10000 nM; for `CCOC(=O)Cn1cc(-c2cnc(N)c3oc(-c4cccc5cnccc45)cc23)cn1` [Example 59, ethyl {4-[7-amino-2-(isoquinolin-5-yl)furo[2,3-c]pyridin-4-yl]-1H-pyrazol-1-yl}acetate] it is 1000 to 10000 nM; for `Nc1ncc(-c2cnn(C3CCN(C(=O)CCC4CCCC4)CC3)c2)c2cc(-c3csc4cnccc34)oc12` [Example 335, 1-{4-[4-(7-Amino-2-thieno[2,3-c]pyridin-3-yl-furo[2,3-c]pyridin-4-yl)-pyrazol-1-yl]-piperidin-1-yl}-3-cyclopentyl-propan-1-one] it is 1000 to 10000 nM.
As to `Cn1ncc2cccc(-c3cc4c(-c5cnn([C@H]6CC[C@H](O)CC6)c5)cnc(N)c4o3)c21` [Example 357, trans-4-{4-[7-amino-2-(1-methyl-1H-indazol-7-yl)furo[2,3-c]pyridin-4-yl]-1H-pyrazol-1-yl}cyclohexanol], the IC50 was 1000 to 10000 nM.
With `CC(=O)N1CCC(n2cc(-c3cnc(N)c4oc(-c5ccc(N)cc5)cc34)cn2)CC1` [Example 183, 1-(4-{4-[7-amino-2-(4-aminophenyl)furo[2,3-c]pyridin-4-yl]-1H-pyrazol-1-yl}piperidin-1-yl)ethanone], the IC50 was in the range of 1000 to 10000 nM.
In the case of `CC(=O)N1CCC(n2cc(-c3cnc(N)c4oc(-c5ccc(C(=O)N(C)C)cc5)cc34)cn2)CC1` [Example 125, 4-{4-[1-(1-acetylpiperidin-4-yl)-1H-pyrazol-4-yl]-7-aminofuro[2,3-c]pyridin-2-yl}-N,N-dimethylbenzamide] it was > 10000 nM; in that of `N#Cc1cc(-c2cc3c(-c4cnn([C@H]5CC[C@H](O)CC5)c4)cnc(N)c3o2)ccc1N` [Example 407, 2-amino-5-{7-amino-4-[1-(trans-4-hydroxycyclohexyl)-1H-pyrazol-4-yl]furo[2,3-c]pyridin-2-yl}benzonitrile], 100 to 1000 nM.
The figure for `Nc1ncc(-c2cnn([C@H]3CC[C@H](O)CC3)c2)c2cc(-c3ccc4c(c3)C(=O)NC4)oc12` [Example 403, 6-{7-amino-4-[1-(trans-4-hydroxycyclohexyl)-1H-pyrazol-4-yl]furo[2,3-c]pyridin-2-yl}-2,3-dihydro-1H-isoindol-1-one] is 100 to 1000 nM.

The record behind these values is patent US8378104B2 (OSI Pharmaceuticals, LLC, priority 2010, dated 2013).
